In PubChem BioAssay AID2060487 (Molecular Pharmacology Branch, DTP, NCI, 2025):

Test system: 997537-175-T-J1-PDC complex spheroid viability
Assay: Anticancer human tumor 997537-175-T-J1-PDC patient-derived colon adenocarcinoma cell line growth inhibition [GQUAD]
Settings: for IC50: curve of first compound; for viability, T/C: stronger effect = lower value
Procedure, shortened: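 Tumor cells were grown as complex spheroids with HUVEC endothelial cells and mesenchymal stem cells as stroma. G-quadruplex stabilizers were combined with targeted agents over half-log dilutions from near the clinical Cmax, or from 10 microM.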

[1] = second compound 0.0316 µM, first compound 0.0316 µM
[2] = second compound 0.0316 µM, first compound 0.1 µM
[3] = second compound 0.0316 µM, first compound 0.316 µM
[4] = second compound 0.0316 µM, first compound 1 µM
[5] = second compound 0.0316 µM, first compound 3.16 µM
[6] = second compound 0.0316 µM, first compound 10 µM
[7] = second compound 0.1 µM, first compound 0.0316 µM
[8] = second compound 0.1 µM, first compound 0.1 µM
[9] = second compound 0.1 µM, first compound 0.316 µM
[10] = second compound 0.1 µM, first compound 1 µM
[11] = second compound 0.1 µM, first compound 3.16 µM
[12] = second compound 0.1 µM, first compound 10 µM
[13] = second compound 0.316 µM, first compound 0.0316 µM
[14] = second compound 0.316 µM, first compound 0.1 µM
[15] = second compound 0.316 µM, first compound 0.316 µM
[16] = second compound 0.316 µM, first compound 1 µM
[17] = second compound 0.316 µM, first compound 3.16 µM
[18] = second compound 0.316 µM, first compound 10 µM
[19] = second compound 1 µM, first compound 0.0316 µM
[20] = second compound 1 µM, first compound 0.1 µM
[21] = second compound 1 µM, first compound 0.316 µM
[22] = second compound 1 µM, first compound 1 µM
[23] = second compound 1 µM, first compound 3.16 µM
[24] = second compound 1 µM, first compound 10 µM
[25] = second compound 3.16 µM, first compound 0.0316 µM
[26] = second compound 3.16 µM, first compound 0.1 µM
[27] = second compound 3.16 µM, first compound 0.316 µM
[28] = second compound 3.16 µM, first compound 1 µM
[29] = second compound 3.16 µM, first compound 3.16 µM
[30] = second compound 3.16 µM, first compound 10 µM
[31] = second compound 10 µM, first compound 0.0316 µM
[32] = second compound 10 µM, first compound 0.1 µM
[33] = second compound 10 µM, first compound 0.316 µM
[34] = second compound 10 µM, first compound 1 µM
[35] = second compound 10 µM, first compound 3.16 µM
[36] = second compound 10 µM, first compound 10 µM
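Note: spheroids exposed to the agents for 7 days.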
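Throughout, for viability, T/C: 100% = DMSO vehicle control viability.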

CC(C)n1c(=O)n(C)c2cnc3cc(F)c(-c4ccc(OCCCN5CCCCC5)nc4)cc3c21 + CN(C)c1ccc(Nc2c3ccc(NC(=O)CCN4CCCC4)cc3nc3cc(NC(=O)CCN4CCCC4)ccc23)cc1
IC50 (second compound 0.0316 µM): > 10 µM | IC50 (second compound 0.1 µM): > 10 µM | IC50 (second compound 0.316 µM): > 10 µM | IC50 (second compound 1 µM): > 10 µM | IC50 (second compound 3.16 µM): > 10 µM | IC50 (second compound 10 µM): > 10 µM | viability, T/C [1]: 104% | viability, T/C [2]: 91.2% | viability, T/C [3]: 101% | viability, T/C [4]: 87% | viability, T/C [5]: 83% | viability, T/C [6]: 108% | viability, T/C [7]: 93.8% | viability, T/C [8]: 86% | viability, T/C [9]: 104% | viability, T/C [10]: 64% | viability, T/C [11]: 96.2% | viability, T/C [12]: 98.7% | viability, T/C [13]: 98.4% | viability, T/C [14]: 81.9% | viability, T/C [15]: 95.9% | viability, T/C [16]: 82.7% | viability, T/C [17]: 93.7% | viability, T/C [18]: 95.2% | viability, T/C [19]: 76% | viability, T/C [20]: 89.8% | viability, T/C [21]: 88.9% | viability, T/C [22]: 93.8% | viability, T/C [23]: 92% | viability, T/C [24]: 95% | viability, T/C [25]: 74.3% | viability, T/C [26]: 85.4% | viability, T/C [27]: 91.7% | viability, T/C [28]: 104% | viability, T/C [29]: 106% | viability, T/C [30]: 93.3% | viability, T/C [31]: 86.6% | viability, T/C [32]: 71.7% | viability, T/C [33]: 103% | viability, T/C [34]: 96.7% | viability, T/C [35]: 103% | viability, T/C [36]: 98.4%

Cc1cccc(N(C)C(=O)C2C(O)CCN2c2nc(C)cc(C(F)(F)F)c2C#N)c1 (stereo not drawn) + CN(C)c1ccc(Nc2c3ccc(NC(=O)CCN4CCCC4)cc3nc3cc(NC(=O)CCN4CCCC4)ccc23)cc1
IC50 (second compound 0.0316 µM): > 10 µM | IC50 (second compound 0.1 µM): > 10 µM | IC50 (second compound 0.316 µM): > 10 µM | IC50 (second compound 1 µM): > 10 µM | IC50 (second compound 3.16 µM): > 10 µM | IC50 (second compound 10 µM): > 10 µM | viability, T/C [1]: 97.8% | viability, T/C [2]: 101% | viability, T/C [3]: 101% | viability, T/C [4]: 80.2% | viability, T/C [5]: 85.4% | viability, T/C [6]: 105% | viability, T/C [7]: 91.5% | viability, T/C [8]: 85.9% | viability, T/C [9]: 87.7% | viability, T/C [10]: 70.3% | viability, T/C [11]: 103% | viability, T/C [12]: 89.7% | viability, T/C [13]: 83.8% | viability, T/C [14]: 85.7% | viability, T/C [15]: 81.4% | viability, T/C [16]: 77.7% | viability, T/C [17]: 89.2% | viability, T/C [18]: 104% | viability, T/C [19]: 84.9% | viability, T/C [20]: 61.3% | viability, T/C [21]: 83.2% | viability, T/C [22]: 81.2% | viability, T/C [23]: 104% | viability, T/C [24]: 85.3% | viability, T/C [25]: 61.4% | viability, T/C [26]: 91.3% | viability, T/C [27]: 77% | viability, T/C [28]: 93.8% | viability, T/C [29]: 103% | viability, T/C [30]: 103% | viability, T/C [31]: 72.5% | viability, T/C [32]: 83.9% | viability, T/C [33]: 106% | viability, T/C [34]: 88.9% | viability, T/C [35]: 106% | viability, T/C [36]: 103%

Cn1ncnc1[C@H]1c2n[nH]c(=O)c3cc(F)cc(c23)N[C@@H]1c1ccc(F)cc1 + CN(C)c1ccc(Nc2c3ccc(NC(=O)CCN4CCCC4)cc3nc3cc(NC(=O)CCN4CCCC4)ccc23)cc1
IC50 (second compound 0.0316 µM): > 0.316 µM | IC50 (second compound 0.1 µM): > 0.316 µM | IC50 (second compound 0.316 µM): > 0.316 µM | IC50 (second compound 1 µM): > 0.316 µM | IC50 (second compound 3.16 µM): > 0.316 µM | IC50 (second compound 10 µM): > 0.316 µM | viability, T/C (second compound 0.0316 µM, first compound 0.000999 µM): 103% | viability, T/C (second compound 0.0316 µM, first compound 0.00316 µM): 88.8% | viability, T/C (second compound 0.0316 µM, first compound 0.00999 µM): 106% | viability, T/C [1]: 66.6% | viability, T/C (second compound 0.0316 µM, first compound 0.0999 µM): 81.1% | viability, T/C [3]: 68.1% | viability, T/C (second compound 0.1 µM, first compound 0.000999 µM): 100% | viability, T/C (second compound 0.1 µM, first compound 0.00316 µM): 97% | viability, T/C (second compound 0.1 µM, first compound 0.00999 µM): 91.9% | viability, T/C [7]: 63% | viability, T/C (second compound 0.1 µM, first compound 0.0999 µM): 102% | viability, T/C [9]: 82.1% | viability, T/C (second compound 0.316 µM, first compound 0.000999 µM): 94.8% | viability, T/C (second compound 0.316 µM, first compound 0.00316 µM): 102% | viability, T/C (second compound 0.316 µM, first compound 0.00999 µM): 95.2% | viability, T/C [13]: 91.2% | viability, T/C (second compound 0.316 µM, first compound 0.0999 µM): 79.7% | viability, T/C [15]: 86.8% | viability, T/C (second compound 1 µM, first compound 0.000999 µM): 84.7% | viability, T/C (second compound 1 µM, first compound 0.00316 µM): 70.5% | viability, T/C (second compound 1 µM, first compound 0.00999 µM): 79.2% | viability, T/C [19]: 86.5% | viability, T/C (second compound 1 µM, first compound 0.0999 µM): 98.5% | viability, T/C [21]: 79.6% | viability, T/C (second compound 3.16 µM, first compound 0.000999 µM): 69.4% | viability, T/C (second compound 3.16 µM, first compound 0.00316 µM): 83.6% | viability, T/C (second compound 3.16 µM, first compound 0.00999 µM): 94.6% | viability, T/C [25]: 91.3% | viability, T/C (second compound 3.16 µM, first compound 0.0999 µM): 94.8% | viability, T/C [27]: 85.9% | viability, T/C (second compound 10 µM, first compound 0.000999 µM): 77.1% | viability, T/C (second compound 10 µM, first compound 0.00316 µM): 87.5% | viability, T/C (second compound 10 µM, first compound 0.00999 µM): 91.2% | viability, T/C [31]: 78.6% | viability, T/C (second compound 10 µM, first compound 0.0999 µM): 109% | viability, T/C [33]: 104%

O=C(c1cc(Cc2n[nH]c(=O)c3ccccc23)ccc1F)N1CCN(C(=O)C2CC2)CC1 + CN(C)c1ccc(Nc2c3ccc(NC(=O)CCN4CCCC4)cc3nc3cc(NC(=O)CCN4CCCC4)ccc23)cc1
IC50 (second compound 0.0316 µM): > 10 µM | IC50 (second compound 0.1 µM): > 10 µM | IC50 (second compound 0.316 µM): > 10 µM | IC50 (second compound 1 µM): > 10 µM | IC50 (second compound 3.16 µM): > 10 µM | IC50 (second compound 10 µM): > 10 µM | viability, T/C [1]: 106% | viability, T/C [2]: 89.7% | viability, T/C [3]: 91.4% | viability, T/C [4]: 79.1% | viability, T/C [5]: 98.9% | viability, T/C [6]: 90.6% | viability, T/C [7]: 92% | viability, T/C [8]: 99.2% | viability, T/C [9]: 97.2% | viability, T/C [10]: 74.5% | viability, T/C [11]: 91.4% | viability, T/C [12]: 88.9% | viability, T/C [13]: 88.3% | viability, T/C [14]: 78.2% | viability, T/C [15]: 90.4% | viability, T/C [16]: 72% | viability, T/C [17]: 97.3% | viability, T/C [18]: 84.3% | viability, T/C [19]: 85.7% | viability, T/C [20]: 86% | viability, T/C [21]: 77.6% | viability, T/C [22]: 85.6% | viability, T/C [23]: 92.4% | viability, T/C [24]: 85.4% | viability, T/C [25]: 82.8% | viability, T/C [26]: 105% | viability, T/C [27]: 88.7% | viability, T/C [28]: 73.9% | viability, T/C [29]: 85.8% | viability, T/C [30]: 105% | viability, T/C [31]: 74.9% | viability, T/C [32]: 97.4% | viability, T/C [33]: 95.2% | viability, T/C [34]: 93.8% | viability, T/C [35]: 102% | viability, T/C [36]: 96%
